Laboratory results reported in PubChem BioAssay AID489032 (Sanford-Burnham Center for Chemical Genomics, 2010).
pEC50: −log10 of the molar value. The source made the active and inactive calls. How the calls were made is not given here.

What follows are compounds tested on UPR adaptive arm reporter cells, luciferase luminescence (assay: adaptive unfolded protein response reporter activation – cell-based, luciferase luminescence, dose response (AID 489032)).
For `FC(F)(F)c1nnc2c(Sc3ccccc3)nc3ccc(Cl)cc3n12`, the EC50 was > 80 µM (inactive). `COc1cccc(-c2sc3ccccc3c2-c2ccc(OCCN(C)C)cc2)c1` was tested, and the EC50 was > 80 µM (inactive). `CCC1CCc2c(sc3nc(SCC(=O)NCc4ccco4)n(-c4ccccc4)c(=O)c23)C1` (stereo not drawn) was tested, and the EC50 was > 80 µM (inactive). Work on `Cc1nc(Nc2nc(-c3ccccc3)cc(=O)[nH]2)nc2ccccc12` yielded a pEC50 of 4.92. With `Cn1nnnc1Sc1ncnc2scc(-c3ccc(Br)cc3)c12` the EC50 was > 80 µM (inactive). For `Cc1cccn2c(=O)c3cc(C(=O)NC4CCCCCC4)sc3nc12`, the EC50 was > 80 µM (inactive). For `O=C(/C=C/c1cc([N+](=O)[O-])ccc1OC(F)F)Nc1cccc([N+](=O)[O-])c1`, the EC50 was > 80 µM (inactive). In the case of `COc1cc(NC(=O)c2ccco2)c(C(=O)OCC(=O)c2c[nH]c3ccccc23)cc1OC`, the EC50 was > 80 µM (inactive). `CCOc1ccccc1N=Cc1c(O)c2ccccc2oc1=O` gave a pEC50 of 4.94. `Cc1ccc(NC(=O)c2cc(S(=O)(=O)N(C)C)ccc2N2CCCC2)cc1S(=O)(=O)N(C)C` was tested, and the EC50 was 32.1 µM (inactive). With `COc1ccc(OCc2n(CC(=O)OC3CC(C)CCC3C(C)C)c3ccccc3[n+]2C)cc1` (stereo not drawn) the EC50 was > 80 µM (inactive). In the case of `Cc1ccc2c(c1)C(c1ccc([N+](=O)[O-])cc1)=NNC(c1ccc(Br)cc1)=N2`, the EC50 was > 80 µM (inactive). For `COc1ccc(-n2c(C)cc(C(=O)CCl)c2C)cc1`, the EC50 was > 80 µM (inactive). `NS(=O)(=O)c1ccc(N/N=C/c2cn(-c3ccccc3)nc2-c2cccs2)c([N+](=O)[O-])c1` was tested, and the EC50 was > 80 µM (inactive). `CCOC(=O)c1c(NC(=O)Cc2cccs2)sc(C(=O)NC2CCCCC2)c1C` was tested, and the EC50 was > 80 µM (inactive). `O=C(NCCCn1ccnc1)c1nn2c(C(F)(F)F)cc(-c3ccc(Br)cc3)nc2c1Cl` was tested, and the EC50 was 21.6 µM (inactive). In the case of `Oc1ccc(Br)cc1/C=N/Nc1ccccn1`, the EC50 was > 80 µM (inactive). With `Cc1ccc(-c2cc(C(F)F)n3ncc(C(=O)N4CCc5ccccc54)c3n2)cc1` the EC50 was 27.2 µM (inactive). In the case of `Nc1c(C(=O)Nc2ccc(S(=O)(=O)N3CCCC3)cc2)sc2nc3ccc(OC(F)(F)F)cc3cc12`, the pEC50 was 4.92. With `CN(C)c1ccc(/C=N/NC(=O)c2ccc(NC(=O)c3ccccc3)cc2)cc1` the EC50 was > 80 µM (inactive). In the case of `O=C(NCC1CC1)c1cccc2c1C(=O)c1ccc(-c3ccc(OC(F)(F)F)cc3)cc1S2(=O)=O`, the EC50 was > 80 µM (inactive). For `O=C(N/N=C/c1ccccc1Cl)c1[nH]c2ccc(Br)cc2c1-c1ccccc1`, the EC50 was 32.9 µM (inactive). In the case of `C=CCN=C1S/C(=C/c2cccc([N+](=O)[O-])c2)C(=O)N1CC=C`, the EC50 was > 80 µM (inactive). With `CCOC(=O)/C=c1\s/c(=C\c2ccc3cc(OC)ccc3c2)c(=O)n1CC(=O)NCC1CCCO1` (stereo not drawn) the EC50 was 54.1 µM (inactive). With `CCCCCc1nc2c(c(=O)c3ccccc3n2C)c(=O)n1C1CCCCCC1` the EC50 was > 80 µM (inactive). For `Cc1ccc(C(=O)Cn2c(C(=O)/C=C/c3ccccc3)nc3ccccc32)cc1`, the EC50 was 44.8 µM (inactive). For `O=c1oc(CCCO)cc2ccc(/C=C/c3cccc([N+](=O)[O-])c3)cc12`, the EC50 was 36.8 µM (inactive). `COc1cc(/C=N/Nc2nc(Nc3ccc(C)cc3)nc(-n3nc(C)cc3C)n2)cc(OC)c1OC` was tested, and the pEC50 was 4.71. In the case of `CCCCCCCCCCOC(=O)Cn1c(COc2ccc(OC)cc2)[n+](C)c2ccccc21`, the EC50 was > 80 µM (inactive). For `CCOC(=O)c1nnc(-c2ccccc2)nc1Sc1ccccc1Cl`, the EC50 was > 80 µM (inactive). For `CCCCN1C(=O)C(=O)c2cc(Cl)ccc21`, the EC50 was 52.4 µM (inactive). In the case of `CCOc1ccccc1NC(=O)Cn1c(=O)n(-c2ccccc2)c(=O)c2oc3ccccc3c21`, the EC50 was > 80 µM (inactive). For `COc1cc(NC(=O)c2cccs2)ccc1NC(=O)c1cc2ccccc2o1`, the EC50 was > 80 µM (inactive). In the case of `Brc1ccc(C2=Nn3c(nnc3-c3n[nH]c4c3CCC4)SC2)cc1`, the EC50 was 28.3 µM (inactive). For `CCc1ccc2[nH]c3nc(SCC(=O)NNC(=O)c4ccc(C(C)(C)C)cc4)nnc3c2c1`, the EC50 was 32.3 µM (inactive). In the case of `COc1ccc(-c2nn(-c3ccccc3)cc2/C=N/N2C(=O)CSC2=S)cc1`, the EC50 was > 80 µM (inactive). `Cc1nc(SCC(=O)Nc2ccc(F)cc2)c(C#N)c(C)c1CC(=O)c1ccc(Br)cc1` was tested, and the EC50 was > 80 µM (inactive). For `COc1ccc(C(=O)O/N=C/c2c(C(F)(F)F)nn(C)c2SCc2ccccc2Cl)cc1`, the EC50 was > 80 µM (inactive). In the case of `COc1cc(OC)cc(C(=O)Nc2ccc3nc4n(c(=O)c3c2)CCCCC4)c1`, the EC50 was 31.9 µM (inactive). Compound `CN(/N=C\c1ccc(O)c(O)c1)c1nc(-c2ccccc2)cc(-c2ccccc2)n1` has a pEC50 of 5.06. Work on `Nc1nc(-c2cc(O)ccc2[N+](=O)[O-])cc(-c2ccccc2)c1[N+](=O)[O-]` yielded a pEC50 of 5.08. With `N#Cc1ccc(N/N=C/c2cn(-c3ccccc3)nc2-c2ccccc2)c([N+](=O)[O-])c1` the EC50 was > 80 µM (inactive). `CCOc1ccc2nc(NC3=NC(c4ccc(OC)cc4)CC(=O)N3)nc(C)c2c1` (stereo not drawn) showed a pEC50 of 4.81. `Cc1ccc(Cc2cnc(NC(=O)/C(C#N)=C/c3ccc(-c4cccc([N+](=O)[O-])c4)o3)s2)cc1` was tested, and the pEC50 was 4.74. In the case of `COc1ccc(-c2cc(C(F)F)n3ncc(C(=O)Nc4ccc(C(=O)N5CCOCC5)cc4)c3n2)cc1`, the EC50 was > 80 µM (inactive). With `Cc1ccc(-n2nc3cc(C)c(NC(=S)NC(=O)/C=C/c4ccco4)cc3n2)cc1` the EC50 was 35.9 µM (inactive). In the case of `Cc1ccc(-c2nn(CC(=O)NCc3cc(-c4nn(C)c(=O)c5ccccc45)ccc3C)c(=O)c3ccccc23)cc1`, the EC50 was > 80 µM (inactive). For `O=C(CSCc1ccc(Cl)cc1)Nc1ccc(-c2nnc(-c3ccccc3)o2)cc1`, the EC50 was > 80 µM (inactive). In the case of `O=C1c2ccccc2C(=O)N1/N=C/c1ccc(O)c(O)c1`, the EC50 was > 80 µM (inactive). For `Cc1cccc(NC(=O)c2nc[nH]c2C(=O)Nc2ccccc2[N+](=O)[O-])c1`, the EC50 was > 80 µM (inactive). `CCCCCCCC(=O)Nc1ccc(C(=O)N/N=C/c2cccc([N+](=O)[O-])c2)cc1` was tested, and the pEC50 was 4.74. With `COc1ccc(-c2ccc3c(c2)S(=O)(=O)c2cccc(C(=O)NCCOc4ccccc4Cl)c2C3=O)cc1OC` the EC50 was > 80 µM (inactive). For `Cc1ccc(Nc2nc(-c3c(C)nc4ccccn34)cs2)cc1`, the EC50 was > 80 µM (inactive). For `COc1ccc(S(=O)(=O)N2c3cc(Cl)ccc3Oc3nc4ccccc4nc32)cc1`, the EC50 was > 80 µM (inactive). With `COc1ccc(/C=N/NC(=O)c2cccc([N+](=O)[O-])c2)c2ccccc12` the EC50 was > 80 µM (inactive). For `COc1ccc(Br)cc1-c1nc2c(c(=O)[nH]c(=O)n2Cc2ccccc2)n1C`, the EC50 was 63.1 µM (inactive). In the case of `COc1ccc(-c2c(-c3cc(OC)cc(OC)c3)n(C)c3ccc(-c4cnc(N)nc4)cc23)cc1`, the EC50 was 36.1 µM (inactive). Compound `O=C(Nc1ccc(Br)cc1)c1cc(-c2ccncc2)nc2ccccc12` has a pEC50 of 4.95. With `Cc1ccc(NC(=O)c2nc[nH]c2C(=O)NCCCNC(=O)c2[nH]cnc2C(=O)Nc2ccc(C)cc2)cc1` the EC50 was > 80 µM (inactive). With `COc1cccc(C(=O)Oc2cc3c4c(c2)C(C)=CC(C)(C)N4C(=O)C3=O)c1` the pEC50 was 4.71. `CCCCNc1c(-c2ccc(-c3ccc(C(C)=O)cc3)c(OC)c2)nc2cc(C)ccn12` was tested, and the EC50 was > 80 µM (inactive). With `CC1CCN(Cc2c(C(=O)N/N=C/c3ccc(C(C)C)cc3)nnn2-c2nonc2N)CC1` the EC50 was > 80 µM (inactive). `CCCCCCCCCCOC(=O)Cn1c(COc2ccccc2OC)[n+](C)c2ccccc21` gave a pEC50 of 4.74. For `O=C(N/N=C/C(Br)=C\c1ccccc1)c1n[nH]c2c1CCC2`, the EC50 was > 80 µM (inactive). With `CCOc1cc(/C=N/NC(=O)Cn2nc([N+](=O)[O-])cc2C)cc(Br)c1OCc1ccccc1C` the EC50 was > 80 µM (inactive). For `C=CCN(CC=C)S(=O)(=O)c1ccc(C(=O)Nc2nc3c(s2)CCc2ccccc2-3)cc1`, the EC50 was 39.9 µM (inactive). With `O=c1[nH]c(CSc2ncnc3sc(-c4ccccc4)cc23)nc2ccccc12` the EC50 was > 80 µM (inactive). For `CCOc1cccc(C(=O)Nc2cccc(-c3nnc(-c4ccc(C)cc4)o3)c2)c1`, the EC50 was > 80 µM (inactive). For `CCOC(=O)c1c(NC(C)=O)sc2c(OCC(O)CNC(C)(C)C)c(Br)ccc12` (stereo not drawn), the EC50 was > 80 µM (inactive). For `COc1cc(/C=C(/C#N)c2nc3ccccc3[nH]2)ccc1OCC(=O)Nc1ccccc1C`, the EC50 was > 80 µM (inactive). With `Cc1ccc(F)cc1N=Cc1c(O)c2ccccc2oc1=O` the pEC50 was 5.00. `COc1ccc(-c2nn(C)c(=O)c3ccccc23)cc1NC(=O)Cn1nc(C)c2ccccc2c1=O` was tested, and the EC50 was 28 µM (inactive). For `CC(C)=CCCC1(C)C=Cc2c(c(C)cc3c2[nH]c2cc(O)ccc23)O1` (stereo not drawn), the EC50 was > 80 µM (inactive). In the case of `Brc1ccc2c(c1)C(c1ccc(N3CCOCC3)cc1)=NNC(c1cccs1)=N2`, the EC50 was 26.4 µM (inactive). With `Cc1ccc(NC(=O)c2ccc(N/N=C/c3cccc(O)c3)c([N+](=O)[O-])c2)cc1` the EC50 was > 80 µM (inactive). In the case of `C/C(=N/Nc1cc(-c2ccccc2)nc(-c2ccccc2)n1)c1ccc(O)cc1`, the pEC50 was 4.70. In the case of `N#Cc1ccc(-c2ccc(Cl)cc2)nc1SCC(=O)c1cccc(Cl)c1`, the pEC50 was 4.96. `Cc1ccc2nc(Nc3nc(C)cc(-c4ccccc4)n3)[nH]c(=O)c2c1` was tested, and the EC50 was > 80 µM (inactive). With `CC1(C)C[C@H](O)[C@]2(CO)[C@H](O)C[C@]3(C)C(=CCC4[C@@]5(C)CC[C@H](O)C(C)(C)C5CC[C@]43C)[C@@H]2C1` (stereo partly drawn) the pEC50 was 4.74. In the case of `C#CCOCCOCCOCCNc1nc(N2CCN(C(=O)CCCCCCCCCCNC(=O)[C@H](CCCCN)n3cc(C[C@@H](C)CC)nn3)CC2)nc(N2CCN(C(=O)CCCCCCCCCCNC(=O)[C@H](CCCN=C(N)N)n3cc(C[C@@H](C)CC)nn3)CC2)n1`, the EC50 was > 80 µM (inactive). With `CCN(CC)c1ccc(N=Cc2c(O)n(-c3ccc(Cl)cc3)c(=O)[nH]c2=O)cc1` the EC50 was 22.7 µM (inactive). For `NC(=O)CC(NC(=O)Cc1cccc2ccccc12)c1ccc(NCCOc2ccccc2)c([N+](=O)[O-])c1` (stereo not drawn), the EC50 was > 80 µM (inactive). With `Fc1ccc(Nc2nc(NCc3ccco3)c3ccccc3n2)cc1` the EC50 was > 80 µM (inactive). `CC(C)=CCc1c2c(c3occ(-c4ccc(O)cc4)c(=O)c3c1O)C=CC(C)(C)O2` was tested, and the EC50 was > 80 µM (inactive). In the case of `CC1CCC(C(C)C)C(OC(=O)Cn2c(-c3ccc(Cl)cc3)[n+](C)c3ccccc32)C1` (stereo not drawn), the EC50 was > 80 µM (inactive). For `C=CCOc1ccc(/C=N/N2C(=O)C(CC(=O)Nc3ccc(F)cc3F)SC2=NC)cc1` (stereo not drawn), the EC50 was > 80 µM (inactive). For `CCCNC(=O)/C(C#N)=C1\N=C(NC(=O)c2cccs2)c2ccccc21`, the EC50 was > 80 µM (inactive). In the case of `CC1=C(/C=C/C(C)=C/C=C/C(C)=C/C(=O)Nc2ccc(O)cc2)C(C)(C)CCC1`, the EC50 was > 80 µM (inactive).
